Assay results published in patent US4868203A, “Bacterial substance and pharmaceutical composition thereof” (Kabushikikaisha Ueno Seiyaku Oyo Kenkyujo, priority 1986, dated 1989).
≈ marks a conversion by molar mass, not a printed value. Where two headings read alike, the source gives them in different places.

Tests used:
[1] = system: Pasteurella piscicida DM-85 strain; parameters: species or system yellowtail; conditions: in vivo
[2] = system: Xandomonas campestris PV oryzae H75373; assay type: cell-based
[3] = Absorbance by oral administration, absorption and secretion in yellowtail (Test Example 10); assay type: in vivo; conditions: oral 100 mg/kg
Method: To a cultured yellowtail, UFC-N11 was compulsorily oral-administered at the rate of 100 mg/kg per body weight of fish. The tissue samples were collected 3, 8, and 24 hours later respective in order to determine the concentrations in the tissues.

[4] = system: Xanthomonas campestris PV citri; conditions: for Prevention: sprayed 24 hours after inoculation, 14 days
[5] = system: Vibrio anguillarum K-3; experiment: Minimum growth inhibiting concentration, pathogenic bacteria of fish disease (Test Example 8); assay type: cell-based; conditions: Vibrio anguillarum K-3 (Vibrio disease of young yellowtail)
Text: (§1) The minimum growth inhibitory concentrations (MIC) of the bacterial substance UFC-N11 against various bacteria were according to conventional procedure the results are as follows: […]

[6] = system: Aeromonas salmonicida, MC7503; experiment: as above; assay type: cell-based; conditions: MC7503 (Furunculosis of salmonids)
Text: as §1

[7] = system: Vibrio anguillarum 25-1; experiment: as above; assay type: cell-based; conditions: Vibrio anguillarum 25-1 (Vibrio disease of sweetfish)
Text: as §1

[8] = system: Flexibacter columnaris V-II; experiment: as above; assay type: cell-based; conditions: Flexibacter columnaris V-II (Columnaris disease of eel)
Text: as §1

[9] = system: Edwardssiella tarda 4-1; experiment: as above; assay type: cell-based; conditions: Edwardssiella tarda 4-1 (Edwardsiellosis of eel)
Text: as §1

[10] = system: Aeromonas hydrophila IAM108; experiment: as above; assay type: cell-based; conditions: Aeromonas hydrophila IAM108 (Aeromonas disease of carp)
Text: as §1

[11] = system: Pseudomonas solanacearum NIAES 1418; assay type: cell-based; conditions: Pseudomonas solanacearum NIAES 1418 (wilt of solanum)

CC=CC=CC=CC(=O)NC(CC(=O)NC(C(=O)C1C(=O)NC(=O)C1C)C(C)C)c1ccccc1 (stereo not shown) [UFC-N11]
therapeutic effect [1]: excellent therapeutic effect | MIC [2]: 0.05 µg/mL (≈ 0.104 µM) | absorption [3]: absorbed in concentrations which were equal to or in excess of the anti-bacterial activity | Concentration in tissue, Kidney ([3]; 3 hr): 6.55 µg/g | Concentration in tissue, Liver ([3]; 3 hr): 8.79 µg/g | Concentration in tissue, Muscle ([3]; 3 hr): 0.96 µg/g | Concentration in tissue, Plasma ([3]; 3 hr): 2100 ng/mL | Concentration in tissue, Kidney ([3]; 8 hr): 4.02 µg/g | Concentration in tissue, Liver ([3]; 8 hr): 5.14 µg/g | Concentration in tissue, Muscle ([3]; 8 hr): 1.12 µg/g | Concentration in tissue, Plasma ([3]; 8 hr): 1340 ng/mL | Concentration in tissue, Kidney ([3]; 24 hr): 1.13 µg/g | Concentration in tissue, Liver ([3]; 24 hr): 1.36 µg/g | Concentration in tissue, Muscle ([3]; 24 hr): < 0.25 µg/g | Concentration in tissue, Plasma ([3]; 24 hr): < 125 ng/mL | Prevention ([4]; 20 ppm): 26.70% | Prevention ([4]; 40 ppm): 33.9% | Damage ([4]; in vivo): nil | MIC [5]: 2.5 µg/mL (≈ 5.21 µM) | MIC [6]: 1.25 µg/mL (≈ 2.61 µM) | MIC [7]: 2.5 µg/mL (≈ 5.21 µM) | MIC [8]: 0.63 µg/mL (≈ 1.31 µM) | MIC [9]: 2.5 µg/mL (≈ 5.21 µM) | MIC [10]: 5.0 µg/mL (≈ 10.4 µM) | MIC [11]: 1.56 µg/mL (≈ 3.25 µM)
